Strand notation (5' to 3'): a small letter for the sugar, then the base; units joined by * are phosphorothioate-linked, units joined directly phosphodiester-linked; [ ] holds rarer units or linkages, { } end groups; capitals alone tell only the bases. e = 2'-O-(2-methoxyethyl) (MOE); k = constrained ethyl (cEt); [5mC] = 5-methylcytosine; d = 2'-deoxy (DNA)
System: human PKK mRNA
Experiment: Antisense inhibition of human PKK mRNA in HepaRG cells, 1,000 nM, MOE/deoxy/cEt oligonucleotides (Example 3)
Assay type: cell-based
In short: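 Readout is percent PKK mRNA reduction against untreated controls, by real-time PCR (RTS3454) adjusted for total RNA via RIBOGREEN. Oligonucleotides, phosphorothioate gapmers of 16 nucleosides with cEt, MOE and deoxy sugars, were delivered at 1,000 nM by electroporation to 20,000 HepaRG cells/well for roughly 24 h.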

[1] = PKK mRNA, HepaRG cells, 1,000 nM antisense oligonucleotide, Table 31
[2] = HepaRG cells, electroporation with 1,000 nM antisense oligonucleotide, approx. 24 hours, PKK mRNA by RT-PCR (RTS3454), relative to untreated control cells, Table 26 experiment
[3] = Table 28, HepaRG cells, 1,000 nM antisense oligonucleotide, human PKK mRNA
[4] = HepaRG cells, 1,000 nM antisense oligonucleotide, Table 29
[5] = HepaRG cells, electroporation with 1,000 nM antisense oligonucleotide, approximately 24 hours, primer probe set RTS3454, relative to untreated control cells, experiment of Table 24
[6] = HepaRG cells, electroporation with 1,000 nM antisense oligonucleotide, approximately 24 hours, primer probe set RTS3454, relative to untreated control cells, experiment of Table 23
[7] = Table 20, HepaRG cells, electroporation with 1,000 nM antisense oligonucleotide, approximately 24 hours, PKK mRNA by RT-PCR (RTS3454), relative to untreated control cells
[8] = Table 22 experiment, HepaRG cells, electroporation with 1,000 nM antisense oligonucleotide, approx. 24 hours, PKK mRNA by RT-PCR (RTS3454), relative to untreated control cells
[9] = HepaRG cells, electroporation with 1,000 nM antisense oligonucleotide, approx. 24 hours, PKK mRNA by RT-PCR (RTS3454), relative to untreated control cells, Table 25 experiment
[10] = Table 19, HepaRG cells, electroporation with 1,000 nM antisense oligonucleotide, approximately 24 hours, PKK mRNA by RT-PCR (RTS3454), relative to untreated control cells
[11] = Table 27, HepaRG cells, 1,000 nM antisense oligonucleotide, human PKK mRNA
[12] = Table 21 experiment, HepaRG cells, electroporation with 1,000 nM antisense oligonucleotide, approx. 24 hours, PKK mRNA by RT-PCR (RTS3454), relative to untreated control cells
[13] = Table 30, human PKK mRNA, HepaRG cells, 1,000 nM antisense oligonucleotide

548625 (antisense eG*eT*kT*d[5mC]*dT*dA*d[5mC]*dA*d[5mC]*dA*d[5mC]*dA*dG*kT*kA*e[5mC]) [compound 548625]
% inhibition [1]: 0%

548233 (eA*eT*kT*dG*dT*dA*dG*d[5mC]*d[5mC]*dA*dT*dA*d[5mC]*kA*kT*e[5mC]; antisense) [compound 548233]
% inhibition [2]: 38%

548513 (antisense e[5mC]*e[5mC]*kT*dG*d[5mC]*dT*dG*dA*dT*dT*dG*dT*dG*kT*k[5mC]*eT) [compound 548513]
% inhibition [3]: 16%

548608 (antisense eA*eT*k[5mC]*dG*dG*dT*dG*dG*dT*dG*dG*dG*dA*kT*kT*eG) [compound 548608]
% inhibition [4]: 25%

548049 (eG*e[5mC]*kG*dA*dT*dA*dT*d[5mC]*dA*dT*dG*dA*dT*kT*k[5mC]*e[5mC]; antisense) [compound 548049]
% inhibition [5]: 62%

548303 (eG*eG*kG*d[5mC]*d[5mC]*d[5mC]*d[5mC]*d[5mC]*dA*dT*dG*dT*d[5mC]*k[5mC]*kA*eT; antisense) [compound 548303]
% inhibition [2]: 0%

547934 (e[5mC]*eT*k[5mC]*dG*dA*dT*dT*dT*dT*d[5mC]*d[5mC]*dA*dT*kA*k[5mC]*eA; antisense) [compound 547934]
% inhibition [6]: 38%

548636 (antisense e[5mC]*eT*k[5mC]*dT*dA*dT*dA*d[5mC]*dA*dG*d[5mC]*dT*dG*kG*kG*e[5mC]) [compound 548636]
% inhibition [1]: 5%

547915 (eT*eG*kG*d[5mC]*dA*dA*d[5mC]*dA*dT*d[5mC]*d[5mC]*dA*d[5mC]*kA*kT*e[5mC]; antisense) [compound 547915]
% inhibition [7]: 0% | % inhibition [8]: 62%

548225 (eA*eG*kT*d[5mC]*dA*d[5mC]*d[5mC]*dA*dT*dA*dG*dA*d[5mC]*k[5mC]*k[5mC]*eA; antisense) [compound 548225]
% inhibition [9]: 48%

548574 (eG*eG*kT*d[5mC]*dT*dA*dA*d[5mC]*dT*d[5mC]*dT*dA*dA*kG*kG*eG; antisense) [compound 548574]
% inhibition [4]: 0%

548508 (antisense eG*e[5mC]*kA*d[5mC]*d[5mC]*dA*d[5mC]*d[5mC]*dA*dT*dG*d[5mC]*dG*kG*kT*eT) [compound 548508]
% inhibition [3]: 43%

548060 (e[5mC]*eT*kT*dG*dT*dG*dT*d[5mC]*dA*d[5mC]*d[5mC]*dT*dT*kT*kG*eG; antisense) [compound 548060]
% inhibition [5]: 76%

548172 (eT*e[5mC]*kA*dG*dT*dT*dG*d[5mC]*dG*dA*d[5mC]*d[5mC]*dT*k[5mC]*kG*e[5mC]; antisense) [compound 548172]
% inhibition [9]: 0%

548213 (eG*eA*k[5mC]*dA*dG*d[5mC]*d[5mC]*d[5mC]*dA*d[5mC]*d[5mC]*dA*dA*k[5mC]*kA*eA; antisense) [compound 548213]
% inhibition [9]: 70%

548196 (e[5mC]*eA*kA*dT*dA*dT*dT*dG*dA*d[5mC]*dT*dT*dT*kG*kG*eG; antisense) [compound 548196]
% inhibition [9]: 6%

548675 (antisense eG*eG*kG*dA*dA*dG*dG*dT*dA*dG*dT*dG*dT*kT*kA*e[5mC]) [compound 548675]
% inhibition [1]: 8%

548242 (eG*e[5mC]*kA*dT*dA*d[5mC]*dT*d[5mC]*dG*d[5mC]*d[5mC]*dT*dT*kT*kG*eT; antisense) [compound 548242]
% inhibition [2]: 25%

548151 (eG*eG*kG*d[5mC]*dT*dT*d[5mC]*dA*dG*d[5mC]*d[5mC]*dA*dG*kA*k[5mC]*eA; antisense) [compound 548151]
% inhibition [9]: 35%

548208 (e[5mC]*eT*k[5mC]*dT*dG*dG*dT*d[5mC]*dA*dA*dT*d[5mC]*dT*kG*kA*e[5mC]; antisense) [compound 548208]
% inhibition [9]: 19%

547939 (eT*eT*kT*dG*dT*dG*dA*d[5mC]*dT*d[5mC]*dG*dA*dT*kT*kT*eT; antisense) [compound 547939]
% inhibition [6]: 70%

548214 (e[5mC]*eA*kG*dA*d[5mC]*dA*dG*d[5mC]*d[5mC]*d[5mC]*dA*d[5mC]*d[5mC]*kA*kA*e[5mC]; antisense) [compound 548214]
% inhibition [9]: 55%

548302 (eG*e[5mC]*k[5mC]*dA*dT*dT*dT*dT*dA*dT*d[5mC]*d[5mC]*d[5mC]*kT*kG*eA; antisense) [compound 548302]
% inhibition [2]: 71%

548133 (eA*eG*kA*dA*dT*dT*dT*dG*dA*d[5mC]*dT*dT*dG*kA*kA*e[5mC]; antisense) [compound 548133]
% inhibition [10]: 23%

548367 (antisense eG*eT*kT*d[5mC]*dT*dT*dG*dA*dG*dT*dG*dT*dA*kG*kA*eG) [compound 548367]
% inhibition [11]: 52%

547817 (eT*eG*kA*dA*d[5mC]*dT*dT*dG*d[5mC]*dT*dG*dG*dA*kA*kG*eA; antisense) [compound 547817]
% inhibition [12]: 18%

548089 (antisense eA*eA*kA*d[5mC]*dT*dA*dA*dG*dG*dG*dA*d[5mC]*d[5mC]*kA*k[5mC]*e[5mC]) [compound 548089]
% inhibition [10]: 34%

548602 (eG*eG*kT*dG*dG*dT*dG*dG*dA*dA*dT*dT*dG*kG*kT*eG; antisense) [compound 548602]
% inhibition [4]: 20%

547797 (antisense eA*eG*k[5mC]*dT*dA*d[5mC]*dA*dT*d[5mC]*d[5mC]*d[5mC]*d[5mC]*dA*k[5mC]*k[5mC]*eT) [compound 547797]
% inhibition [12]: 33%

548529 (antisense eG*e[5mC]*kG*dA*dT*dT*d[5mC]*d[5mC]*dT*dT*dG*d[5mC]*d[5mC]*kT*k[5mC]*eT) [compound 548529]
% inhibition [3]: 56%

548176 (eG*eA*kT*d[5mC]*dT*d[5mC]*dA*dG*dT*dT*dG*d[5mC]*dG*kA*k[5mC]*e[5mC]; antisense) [compound 548176]
% inhibition [9]: 38%

548370 (eA*e[5mC]*kG*dA*dA*dG*dT*d[5mC]*dT*d[5mC]*dT*dT*dT*k[5mC]*k[5mC]*eT; antisense) [compound 548370]
% inhibition [11]: 53%

548351 (antisense e[5mC]*eT*kG*dG*dA*dA*dA*d[5mC]*dG*dA*dG*dA*d[5mC]*kA*k[5mC]*eA) [compound 548351]
% inhibition [11]: 33%

548132 (eG*eA*kA*dT*dT*dT*dG*dA*d[5mC]*dT*dT*dG*dA*kA*k[5mC]*eT; antisense) [compound 548132]
% inhibition [10]: 0%

548164 (eG*eA*k[5mC]*d[5mC]*dT*d[5mC]*dG*d[5mC]*dA*dT*dT*dG*dT*k[5mC]*kA*eG; antisense) [compound 548164]
% inhibition [9]: 40%

548440 (antisense e[5mC]*e[5mC]*kT*dA*dT*dA*dA*d[5mC]*dA*dG*dT*dA*dT*k[5mC]*kA*e[5mC]) [compound 548440]
% inhibition [13]: 32%

548439 (antisense e[5mC]*e[5mC]*kT*dA*dT*dA*dT*d[5mC]*dA*d[5mC]*dT*dG*dT*kA*k[5mC]*e[5mC]) [compound 548439]
% inhibition [13]: 46%

548503 (antisense e[5mC]*e[5mC]*kA*dT*d[5mC]*dT*dA*d[5mC]*dT*d[5mC]*d[5mC]*d[5mC]*d[5mC]*k[5mC]*kA*eT) [compound 548503]
% inhibition [3]: 9%

548245 (e[5mC]*e[5mC]*kA*dT*dG*d[5mC]*dA*dT*dA*d[5mC]*dT*d[5mC]*dG*k[5mC]*k[5mC]*eT; antisense) [compound 548245]
% inhibition [2]: 31%

547965 (antisense eG*eG*kG*dT*dT*d[5mC]*dA*dG*dG*dT*dA*dA*dA*kG*kT*eT) [compound 547965]
% inhibition [6]: 29%

547912 (eA*eT*k[5mC]*d[5mC]*dA*d[5mC]*dA*dT*d[5mC]*dT*dG*dA*dG*kA*kA*e[5mC]; antisense) [compound 547912]
% inhibition [7]: 23% | % inhibition [8]: 53%

548649 (antisense eG*e[5mC]*k[5mC]*dT*d[5mC]*dT*d[5mC]*dA*dG*dA*d[5mC]*dG*dG*k[5mC]*kA*e[5mC]) [compound 548649]
% inhibition [1]: 0%

548506 (antisense eG*eA*kA*dG*d[5mC]*d[5mC]*dA*dT*dT*d[5mC]*dA*d[5mC]*dT*kG*k[5mC]*eA) [compound 548506]
% inhibition [3]: 32%
